In PubChem BioAssay AID1918941 (Molecular Pharmacology Branch, DTP, NCI, 2023):
Several values for one entry are separate records, joined by “and”; a condition that tells them apart may be missing. Identical values can stand only once. Each block holds one molecule with its values, some of them ahead of it.

Tested on: SW 1271 complex spheroids, viability
Experiment: Anticancer human tumor SW 1271 cell line growth inhibition [LSD1];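 also: spheroids exposed to agents for 7 days before luminescence read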;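 as to viability, T/C: 100% = DMSO vehicle control viability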
Details: for viability, T/C: stronger effect = lower value
Summary of the method: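 Complex spheroids of tumor cells with HUVEC and human MSCs, exposed to iadademstat combined with other agents. Each agent tested in half-log steps from near clinical Cmax (else 10 microM top), DMSO ≤0.25%.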

[1] = curve of first compound, second compound 0.1 µM
[2] = curve of first compound, second compound 0.316 µM
[3] = curve of first compound, second compound 1 µM
[4] = curve of first compound, second compound 3.16 µM
[5] = curve of first compound, second compound 10 µM
[6] = second compound 0.1 µM, first compound 0.00949 µM
[7] = second compound 0.1 µM, first compound 0.03 µM
[8] = second compound 0.1 µM, first compound 0.0949 µM
[9] = second compound 0.1 µM, first compound 0.3 µM
[10] = second compound 0.1 µM, first compound 0.949 µM
[11] = second compound 0.1 µM, first compound 3 µM
[12] = second compound 0.316 µM, first compound 0.00949 µM
[13] = second compound 0.316 µM, first compound 0.03 µM
[14] = second compound 0.316 µM, first compound 0.0949 µM
[15] = second compound 0.316 µM, first compound 0.3 µM
[16] = second compound 0.316 µM, first compound 0.949 µM
[17] = second compound 0.316 µM, first compound 3 µM
[18] = second compound 1 µM, first compound 0.00949 µM
[19] = second compound 1 µM, first compound 0.03 µM
[20] = second compound 1 µM, first compound 0.0949 µM
[21] = second compound 1 µM, first compound 0.3 µM
[22] = second compound 1 µM, first compound 0.949 µM
[23] = second compound 1 µM, first compound 3 µM
[24] = second compound 3.16 µM, first compound 0.00949 µM
[25] = second compound 3.16 µM, first compound 0.03 µM
[26] = second compound 3.16 µM, first compound 0.0949 µM
[27] = second compound 3.16 µM, first compound 0.3 µM
[28] = second compound 3.16 µM, first compound 0.949 µM
[29] = second compound 3.16 µM, first compound 3 µM
[30] = second compound 10 µM, first compound 0.00949 µM
[31] = second compound 10 µM, first compound 0.03 µM
[32] = second compound 10 µM, first compound 0.0949 µM
[33] = second compound 10 µM, first compound 0.3 µM
[34] = second compound 10 µM, first compound 0.949 µM
[35] = second compound 10 µM, first compound 3 µM
[36] = second compound 0.1 µM, first compound 0.0316 µM
[37] = second compound 0.1 µM, first compound 0.1 µM
[38] = second compound 0.1 µM, first compound 0.316 µM
[39] = second compound 0.1 µM, first compound 1 µM
[40] = second compound 0.1 µM, first compound 3.16 µM
[41] = second compound 0.1 µM, first compound 10 µM
[42] = second compound 0.316 µM, first compound 0.0316 µM
[43] = second compound 0.316 µM, first compound 0.1 µM
[44] = second compound 0.316 µM, first compound 0.316 µM
[45] = second compound 0.316 µM, first compound 1 µM
[46] = second compound 0.316 µM, first compound 3.16 µM
[47] = second compound 0.316 µM, first compound 10 µM
[48] = second compound 1 µM, first compound 0.0316 µM
[49] = second compound 1 µM, first compound 0.1 µM
[50] = second compound 1 µM, first compound 0.316 µM
[51] = second compound 1 µM, first compound 1 µM
[52] = second compound 1 µM, first compound 3.16 µM
[53] = second compound 1 µM, first compound 10 µM
[54] = second compound 3.16 µM, first compound 0.0316 µM
[55] = second compound 3.16 µM, first compound 0.1 µM
[56] = second compound 3.16 µM, first compound 0.316 µM
[57] = second compound 3.16 µM, first compound 1 µM
[58] = second compound 3.16 µM, first compound 3.16 µM
[59] = second compound 3.16 µM, first compound 10 µM
[60] = second compound 10 µM, first compound 0.0316 µM
[61] = second compound 10 µM, first compound 0.1 µM
[62] = second compound 10 µM, first compound 0.316 µM
[63] = second compound 10 µM, first compound 1 µM
[64] = second compound 10 µM, first compound 3.16 µM
[65] = second compound 10 µM, first compound 10 µM

Structure (SMILES): NS(=O)(=O)OCC1CC(n2ccc3c(NC4CCc5ccccc54)ncnc32)CC1O (centres undefined) + NC1CC1c1ccc(-c2cccc(O)c2)cc1
IC50 [1]: > 3000 nM
IC50 [2]: > 3000 nM
IC50 [3]: > 3000 nM
IC50 [4]: > 3000 nM
IC50 [5]: > 3000 nM
viability, T/C [6]: 151%
viability, T/C [7]: 123%
viability, T/C [8]: 103%
viability, T/C [9]: 86%
viability, T/C [10]: 85.5%
viability, T/C [11]: 88.5%
viability, T/C [12]: 166%
viability, T/C [13]: 112%
viability, T/C [14]: 94.5%
viability, T/C [15]: 82.3%
viability, T/C [16]: 82.1%
viability, T/C [17]: 79.9%
viability, T/C [18]: 148%
viability, T/C [19]: 110%
viability, T/C [20]: 95.9%
viability, T/C [21]: 75.8%
viability, T/C [22]: 85.9%
viability, T/C [23]: 79%
viability, T/C [24]: 144%
viability, T/C [25]: 101%
viability, T/C [26]: 99.9%
viability, T/C [27]: 85.5%
viability, T/C [28]: 75.6%
viability, T/C [29]: 83.9%
viability, T/C [30]: 141%
viability, T/C [31]: 116%
viability, T/C [32]: 115%
viability, T/C [33]: 101%
viability, T/C [34]: 87.3%
viability, T/C [35]: 91.1%

Structure (SMILES): COc1ccc([C@@H](O)c2cc(-c3ncnc4cc(N5CCOCC5)ccc34)c(F)cc2Cl)nn1 + NC1CCC(NC2CC2c2ccccc2)CC1
IC50 [1]: 811 nM
IC50 [2]: 542 nM
IC50 [3]: 608 nM
IC50 [4]: 836 nM
IC50 [5]: 436 nM
viability, T/C [36]: 92%
viability, T/C [37]: 84.7%
viability, T/C [38]: 62.1%
viability, T/C [39]: 49.4%
viability, T/C [40]: 29.2%
viability, T/C [41]: 21%
viability, T/C [42]: 82.1%
viability, T/C [43]: 70.6%
viability, T/C [44]: 58.2%
viability, T/C [45]: 40.8%
viability, T/C [46]: 30.3%
viability, T/C [47]: 21.4%
viability, T/C [48]: 75%
viability, T/C [49]: 65.3%
viability, T/C [50]: 65.2%
viability, T/C [51]: 38.7%
viability, T/C [52]: 27.5%
viability, T/C [53]: 21.6%
viability, T/C [54]: 68%
viability, T/C [55]: 65.2%
viability, T/C [56]: 66.2%
viability, T/C [57]: 46.3%
viability, T/C [58]: 25.5%
viability, T/C [59]: 16.7%
viability, T/C [60]: 89.4%
viability, T/C [61]: 60%
viability, T/C [62]: 50.4%
viability, T/C [63]: 49%
viability, T/C [64]: 26.6%
viability, T/C [65]: 14.9%

Structure (SMILES): O=C(C=Cc1cccc(S(=O)(=O)Nc2ccccc2)c1)NO + NC1CCC(NC2CC2c2ccccc2)CC1
IC50 [1]: 167 nM
IC50 [2]: 122 nM
IC50 [3]: 88.5 nM
IC50 [4]: 606 nM
IC50 [5]: 84.7 nM
viability, T/C [6]: 72.1%
viability, T/C [7]: 72.1%
viability, T/C [8]: 57.9%
viability, T/C [9]: 22.7%
viability, T/C [10]: 6.87%
viability, T/C [11]: 96%
viability, T/C [12]: 88.8%
viability, T/C [13]: 69.8%
viability, T/C [14]: 61.9%
viability, T/C [15]: 18.5%
viability, T/C [16]: 7.13%
viability, T/C [17]: 97.9%
viability, T/C [18]: 78.8%
viability, T/C [19]: 68.8%
viability, T/C [20]: 52.4%
viability, T/C [21]: 19.1%
viability, T/C [22]: 8.74%
viability, T/C [23]: 102%
viability, T/C [24]: 88.6%
viability, T/C [25]: 72.9%
viability, T/C [26]: 56.1%
viability, T/C [27]: 26.4%
viability, T/C [28]: 6.99%
viability, T/C [29]: 108%
viability, T/C [30]: 85.3%
viability, T/C [31]: 75.7%
viability, T/C [32]: 48.8%
viability, T/C [33]: 22.1%
viability, T/C [34]: 7.93%
viability, T/C [35]: 98.2%

Structure (SMILES): Nc1ccn(C2OC(CO)C(O)C2(F)F)c(=O)n1 (centres undefined) + NC1CCC(NC2CC2c2ccccc2)CC1
IC50 [1]: > 300 nM
IC50 [2]: > 300 nM
IC50 [3]: > 300 nM
IC50 [4]: > 300 nM
IC50 [5]: > 300 nM
viability, T/C (second compound 0.1 µM, first compound 0.000949 µM): 83.3%
viability, T/C (second compound 0.1 µM, first compound 0.003 µM): 69.4%
viability, T/C [6]: 62.5%
viability, T/C [7]: 59.5%
viability, T/C [8]: 69.3%
viability, T/C [9]: 71.4%
viability, T/C (second compound 0.316 µM, first compound 0.000949 µM): 73.8%
viability, T/C (second compound 0.316 µM, first compound 0.003 µM): 71.2%
viability, T/C [12]: 76.2%
viability, T/C [13]: 61.3%
viability, T/C [14]: 62.7%
viability, T/C [15]: 59.6%
viability, T/C (second compound 1 µM, first compound 0.000949 µM): 80.7%
viability, T/C (second compound 1 µM, first compound 0.003 µM): 64.6%
viability, T/C [18]: 59.8%
viability, T/C [19]: 66.3%
viability, T/C [20]: 56.1%
viability, T/C [21]: 59.4%
viability, T/C (second compound 3.16 µM, first compound 0.000949 µM): 67.5%
viability, T/C (second compound 3.16 µM, first compound 0.003 µM): 68.4%
viability, T/C [24]: 84.5%
viability, T/C [25]: 59.8%
viability, T/C [26]: 60.5%
viability, T/C [27]: 63%
viability, T/C (second compound 10 µM, first compound 0.000949 µM): 83.7%
viability, T/C (second compound 10 µM, first compound 0.003 µM): 64.3%
viability, T/C [30]: 62.5%
viability, T/C [31]: 68.6%
viability, T/C [32]: 60.7%
viability, T/C [33]: 64.9%

IC50 (curve of compound): > 10000 nM
Structure (SMILES): CC(C)c1c(-c2ccccc2)nc2c(C#N)c[nH]n2c1=O
viability, T/C (compound 0.0316 µM): 85.1% and 98.1%
viability, T/C (compound 0.1 µM): 83.1% and 98.6%
viability, T/C (compound 0.316 µM): 83.4% and 100%
viability, T/C (compound 1 µM): 89.3% and 88.1%
viability, T/C (compound 3.16 µM): 86.2% and 91.6%
viability, T/C (compound 10 µM): 75.1% and 94.7%

IC50 (curve of compound): 108 nM and 92.1 nM
Structure (SMILES): CC1COCCN1c1cc(-c2ccnn2C)c2ccnc(-c3ccn[nH]3)c2n1 (centres undefined)
viability, T/C (compound 0.00316 µM): 72.4% and 71.8%
viability, T/C (compound 0.01 µM): 72.6% and 63.3%
viability, T/C (compound 0.0316 µM): 50.7% and 59%
viability, T/C (compound 0.1 µM): 50.3% and 47.2%
viability, T/C (compound 0.316 µM): 48.2% and 43.4%
viability, T/C (compound 1 µM): 30.1% and 28.4%

Structure (SMILES): CC1(C)CCC(CN2CCN(c3ccc(C(=O)NS(=O)(=O)c4ccc(NCC5CCOCC5)c([N+](=O)[O-])c4)c(Oc4cnc5[nH]ccc5c4)c3)CC2)=C(c2ccc(Cl)cc2)C1 + NC1CCC(NC2CC2c2ccccc2)CC1
IC50 [1]: 2100 nM
IC50 [2]: 2050 nM
IC50 [3]: 2040 nM
IC50 [4]: 2170 nM
IC50 [5]: 2350 nM
viability, T/C [36]: 103%
viability, T/C [37]: 95.6%
viability, T/C [38]: 94.6%
viability, T/C [39]: 92.2%
viability, T/C [40]: 26.9%
viability, T/C [41]: 0.57%
viability, T/C [42]: 100%
viability, T/C [43]: 100%
viability, T/C [44]: 106%
viability, T/C [45]: 96.6%
viability, T/C [46]: 21.6%
viability, T/C [47]: 0.63%
viability, T/C [48]: 89.5%
viability, T/C [49]: 90.5%
viability, T/C [50]: 99.7%
viability, T/C [51]: 103%
viability, T/C [52]: 21.9%
viability, T/C [53]: 0.38%
viability, T/C [54]: 96.4%
viability, T/C [55]: 101%
viability, T/C [56]: 99%
viability, T/C [57]: 97.2%
viability, T/C [58]: 26.9%
viability, T/C [59]: 0.42%
viability, T/C [60]: 92.5%
viability, T/C [61]: 102%
viability, T/C [62]: 97.8%
viability, T/C [63]: 95.4%
viability, T/C [64]: 34.3%
viability, T/C [65]: 0.66%
